Data as given in US8609814B2, “Modified globin proteins with altered electron transport pathway” (University of Essex Enterprises Limited, priority 2007, dated 2013).

B1: Horse myoglobin: ferric horse myoglobin from Sigma-Aldrich, further purified by gel filtration (protein, UniProt P68082 2-154, looked up)
Myoglobin: GLSDGEWQQVLNVWGKVEADIAGHGQEVLIRLFTGHPETLEKFDKFKHLKTEAEMKASEDLKKHGTVVLTALGGILKKKGHHEAELKPLAQSHATKHKIPIKYLEFISDAIIHVLHSKHPGDFGADAQGAMTKALELFRNDIAAKYKELGFQG
modifications: ferric
notes: ferric horse myoglobin from Sigma-Aldrich, further purified by gel filtration
B2: myoglobin: myoglobin in its ferryl oxidation state, two site model based on FIGS. 1 and 2 data (protein, UniProt P02144 2-154, looked up)
Myoglobin: GLSDGEWQLVLNVWGKVEADIPGHGQEVLIRLFKGHPETLEKFDKFKHLKSEDEMKASEDLKKHGATVLTALGGILKKKGHHEAEIKPLAQSHATKHKIPVKYLEFISECIIQVLQSKHPGDFGADAQGAMNKALELFRKDMASNYKELGFQG
modifications: ferryl oxidation state

Legend:
[1] = ferryl myoglobin reduction kinetics by deferiprone; format: biochemical; conditions: for concentration dependence of ferryl reduction rate constant (high affinity through-protein electron transfer pathway): reductant deferiprone, ferryl myoglobin 10 μM, sodium phosphate pH 7.4, 25° C.
Description: In this example the kinetics of the reduction of ferryl haem from myoglobin from different species to ferric haem protein were examined kinetically to determine the presence or absence of a high affinity-through protein pathway. Following the procedure, ferric horse myoglobin from Sigma-Aldrich (Poole, Dorset, UK, further purified by gel filtration), or recombinant ferric Aplysia myoglobin Mb (20 μM) in 5 mM sodium phosphate pH 7.4 was reacted with H2O2 (20 μM) at 25° C. for 15 min. At this time conversion of ferric myoglobin to ferryl myoglobin was greater than 95% as measured by addition of sodium sulfide (1 mM). Catalase (10 nM) was added to remove unreacted H2O2 and was left to react for a further 1 min. At the pH used the ferryl haem protein is stable for several hours. Reductant was then added in 0.1M sodium phosphate pH 7.4 in a 1:1 volume ratio so that final concentration of ferryl myoglobin was 10 μM. The pH may be ‘jumped’ to other values where the ferryl haem is unstable using other strong buffers (e.g. 0.1M sodium acetate, pH 5). The optical spectrum was followed until reaction was complete. The time course (425 nm-408 nm) was fitted to a single exponential function using the least squares method. These rate constants were then plotted as a function of reductant concentration and this profile fitted (least squares method) to a double rectangular hyperbola (FIG. 1):
Where ka and kb are the maximum rates for each hyperbola and KD1 and KD2 are the dissociation constants, S is the concentration of the reductant and AR is the rate constant for ferryl auto-reduction.
Wild-type and recombinant sperm whale myoglobin and recombinant Tyr103>Phe sperm whale myoglobin were reacted with peroxide and the kinetics of ferryl haem reduction by deferiprone determined as described in example 1. The through-protein electron transfer pathway, evident in wild type sperm whale myoglobin, is not observed in the Tyr103>Phe mutant (FIG. 2).

[2] = ferryl human haemoglobin reduction kinetics by ascorbate; format: biochemical; conditions: reductant ascorbate; 10 μM ferryl protein; sodium phosphate pH 7.4; double exponential fit
Description: Recombinant human haemoglobin was reacted with peroxide and the kinetics of ferryl haem reduction by ascorbate determined as described in example 1. The time course of ferryl haem reduction is not single exponential, as observed with myoglobin, but can be described using a double exponential function that generates two rate constants, one representing the observed rate constant for ferryl reduction of the alpha subunit and one representing the observed rate constant for ferryl reduction of the beta subunit.

Molecule	concentration dependence of ferryl reduction rate constant (high affinity through-protein electron transfer pathway) [1]	further results
Tyr103>Phe mutant: recombinant Tyr103>Phe sperm whale myoglobin	not observed	
wild type ferryl human haemoglobin: recombinant wild type human haemoglobin, alpha and beta subunits		concentration dependence of ferryl reduction rate constant, alpha subunit [2]: double rectangular hyperbola concentration dependence
wild type sperm whale myoglobin: wild-type recombinant sperm whale myoglobin	evident	
B1	shows a double rectangular hyperbola concentration dependence	
B2		kmax, transfer of an electron through the protein to the ferryl haem iron (high affinity site) ([1]; two site model of FIGS. 1 and 2 data, site at or close to Tyr103): ≈ 0.01 s^−1
